Key:
[1] = tested on: cyclic RGD peptide; test: Fixed-gap (5 nm) MEMED tunnel chip functionalized with cyclic RGD peptide; type: binding; design: signal in fixed-gap device: dose or concentration left out as unconfirmed
Protocol: A fixed gap tunneling device has significant advantages over STM measurements. […] It is fabricated much as described in our earlier paper. The basic fabrication of the layered device (10 nm Pd, 4 to 5 nm Al2O3 followed by 10 nm Pd, resting on top of a 25 nm SiN substrate and passivated on top with SiO2) was carried out by Norcada Inc. (Edmonton, Alberta). Our original devices had large (micron-scale) openings, but it was desired to restrict the region over which proteins could be captured to dimensions small enough that the capture of multiple molecules in the tunnel junction was unlikely (illustrated schematically by the capture of a single integrin in FIG. 16A). RIE was used to thin the underlying SiN substrate to ˜15 nm, followed by e-beam lithography using a hard mask and further RIE etching (FIG. 16C and Methods). In this way, slits were produced that were 50 to 100 nm across and up to 400 nm long, though the active area was defined by the top electrode widths of about 100 nm (FIG. 16C). After cleaning and functionalization (Methods) the device was immersed in 1 mM phosphate buffer (pH=7.4) with the electrode potentials controlled with respect to an Ag/AgCl electrode coupled via a salt bridge (SB in FIG. 16A).
Our devices often suffer from failure of the passivation layer (SiO2 in FIG. 16B) so that, even in the dilute electrolyte, leakage currents can be substantial (e.g., a few nA, FIG. 16D). […] Thus, these are currents that pass from exposed regions of the top electrodes via the electrolyte, and they are not a consequence of tunneling or electrochemical leakage across the tunnel gap itself. These leakage currents (FIG. 16D) show no distinctive features beyond the shot- and system electronic noise (distributed as a Gaussian, FIG. 16E). When […] α1β4 protein was added (FIG. 16F) the background current falls a little, presumably because of passivation of the exposed electrodes by non-specific adsorption of this protein. Once again, the signal is featureless, displaying the same intrinsic noise as observed in buffer alone (FIG. 16G). (In contrast to the STM measurements, no features have been observed in the fixed-gap devices in any measurement taken in the presence of α1β4.) However, once αVβ3 protein is added to the same device, dramatic jumps occur in the current (FIG. 16H). The background leakage current is reduced by about 20% on addition of the protein, consistent with the passivation effect seen in the macroscopic electrochemical measurements (FIGS. 14B, 14C). The signal jumps up from the baseline to two well defined levels (FIG. 16I) in this case. The states are separated by nearly 0.5 nA, corresponding to ˜1.5 nS conductance (Vt=0.3V). […]

[2] = tested on: cyclic RGD peptide; test: Tunnel junction device functionalized with cyclic RGD peptide, gap 3.5 to 4 nm, current vs time; type: binding; details: for signal on flowing solution over junction: X=0.1 μm junction, 10 pM α4β1 for several minutes, then 10 fM αVβ3
From the text: FIG. 7 illustrates a cross-sectional view of a tunnel junction edge (i.e., the edge of an opening) of the device according to some embodiments of the present disclosure which includes a first metal electrode 71 (e.g., palladium, gold and/or platinum) onto which is deposited a layer of an insulating dielectric such as alumina 72 (for example). A second metal electrode 73 is then deposited, typically using one of the metals used for the first electrode. In some embodiments (not shown), the first electrode 71 and the second electrode 73 A cut is then made in the structure to expose the edge of these layers (fabrication of this type of device is described in detail in co-pending, published WO2015/161119, and also in Pang, Ashcroft et al. 2014) to form the opening/nanopore 78, shown here as a plane adjacent to the electrodes 71, 73. Accordingly, the first electrode 71 and the second electrode 73 can have an opening formed therethrough such as, for example, a nanopore. Said another way, the first electrode 71 and the second electrode 73 can be said to be arranged within or adjacent to an opening, or have a nanopore formed therethrough.
Specifically, for example, the insulating layer 72 is deposited with a thickness d that is chosen to be greater than the longest linear dimension of the recognition molecules 74 (L1, referred to as its effective length). However, according to some embodiments, it is chosen to be less than the combined overall length of the largest dimension of a target molecule 75 (L2, also referred to as its effective length) bound to the recognition molecule 74 (L1+L2). In the case of the integrin-RGD pair (FIGS. 3 and 4) the RGD molecule is about 1 nm at its longest, while the integrin is 9 nm, for a total of about 10 nm. […] However, a large particle that fluctuates into a highly conductive state could be used to mediate current flow (Vattay, Salahub et al. 2015). In some embodiments, the gap need only be made substantially larger than twice the largest dimension of the recognition molecules (i.e., >2L1). Thus, for example, if a recognition molecule is 1 nm at its longest dimension, then the gap is configured to be greater than 2 nm, preferably by about 10%, to accommodate variations in the junction geometry (larger than 2.2 nm in this example). In some embodiments, a gap size can be from the noted minimum up to the size of one recognition molecule plus the size of the target protein. For example, if the largest dimension of the protein is 9 nm, then the gap in this case can be as big 9 nm plus the size of one of the recognition molecules (1 nm in this example), thus, a gap of 10 nm.
However, when the junctions are exposed to the target protein (αvβ3 integrin) signals appear immediately. […] A clear signal is immediately generated which includes two (2) features as marked: a background current (of about 0.5 nA in this case) and noise spikes of 0.5 to 1 nA superimposed on top.

| Substance | signal in undiluted Serasub (protein-free serum substitute) ([1]; 0.1 nM, tunneling bias 200 mV) [LS signals were observed] | conductance of current jump ([1]; Vt=0.3V, 5 nm gap) [nS] | separation of current states (current jumps) ([1]; Vt=0.3V, 5 nm gap) [nA] | background current ([2]; 1 pM in 1 mM phosphate buffer pH 7.0) | signal on flowing solution over junction [2] | change of background current ([2]; on increasing concentration to 10 pM) | signal in fixed-gap device ([1]; protein added) | background current ([2]; 10 pM and 100 pM solutions) |
| --- | --- | --- | --- | --- | --- | --- | --- | --- |
| αvβ3: ~200 kD αVβ3 extracelluar domain of human integrin, target protein bound by cyclic RGD peptide | 2 | ~1.5 | ~0.5 | about 0.5 nA | a large signal appeared after a few minutes | increases by nearly an order of magnitude |  |  |
| α4β1: homologous, weakly-binding integrin protein used as a control |  |  |  |  | no signal being produced |  | featureless | no background current |

— patent US10422787B2, “System and method for single molecule detection” (ARIZONA BOARD OF REGENTS on behalf of ARIZONA STATE …, priority 2015, dated 2019)
